Values after ≈ are worked out from the molar mass of the structure shown. “Also recorded” adds a separate entry of the source. Like-named read-outs stand apart in the source and are kept apart here.
Key:
physchem = format: physicochemical; details: for improvement in solubility: by amorphous inclusion complexes with HP-β-CD; for solubility at 24 h: thermodynamic from solid
Description: Concentrations of Hed and Het during solubility, dissolution rate, and permeability studies were measured by high-performance liquid chromatography with the DAD detector (HPLC-DAD). In this study, a Shimadzu Nexera (Shimadzu Corp., Kyoto, Japan) equipped with SCL-40 system controller; DGU-403 degassing unit; LC-40B XR solvent delivery module; SIL-40C XR auto sampler; CTO-40C column oven; SPD-M40 photo diode array detector, was used. For the stationary phase, a Dr. Maisch ReproSil-Pur Basic-C18 100 Å column, 5 µm particle size, 250 × 4.60 mm (Dr. Maisch, Ammerbuch-Entringen, Germany), was used. The mobile phase was methanol/0.1% acetic acid (65:35 v/v). The mobile phase was vacuum-filtered through a 0.45 µm nylon filter (Phenomenex, CA, USA). The experimental conditions were as follows: 0.9 mL·min^−1 flow rate, wavelength 280 nm for Hed and 288 nm for Het, and the column temperature at 30 °C. The injection volume differed depending on the assay. […] The method duration time was 10 min.
A total of 0.1 M HCl was obtained from the analytical weighed amount in accordance with the BASF SE recommendations. Phosphate buffer at pH 6.8 was prepared according to the following description: in a 1000 mL volumetric flask, we placed 250 mL of 0.2 N potassium dihydrogen phosphate solution, then added 112 mL of 0.2 N sodium hydroxide solution and filled the mixture up to 1000 mL with distilled water. High-quality pure water was prepared using a Direct-Q 3 UV purification system (Millipore, Molsheim, France, model Exil SA 67120).
An excess number of obtained systems and physical mixtures was placed in a 10 mL glass tube; then, 5.0 mL of medium (water, HCl 0.1 N or phosphate buffer (pH 6.8)) was added. All samples were mixed using a vortex mixer for 30 s and left at room temperature for 24 h. The obtained solutions were filtered through a 0.2 μm nylon membrane filter (Sigma-Aldrich, St. Louis, MO, USA) and analyzed for Hed and Het content using the developed and validated the HPLC method. The analysis was performed in triplicate.

BChE = target: T1, BChE (Homo sapiens, UniProt P06276); experiment: Butyrylcholinesterase (BChE) inhibition assay; format: biochemical
T1 construct: purchased Sigma Aldrich, Germany
Description: (§1) To assess the activity of Hed, Het, and systems, the spectrometric method according to the outlined procedure was applied. A Multiskan GO 1510 (Thermo Fisher Scientific, Vantaa, Finland) plate reader was used for measurements of 96-well plates of the maximum volume of 300 μL. The hydrolysis of acetylthiocholine/butyrylthiocholine caused a color change. The absorbance of the enzymes was measured at a wavelength of 412 nm, 10 min after pipetting on a microplate. The reaction mixture containing 0.1 mL of 0.3 mM 5,5-dithio-bis-(2-nitrobenzoic acid) (DTNB, Sigma Aldrich, Germany), 10 mM NaCl and 2 mM MgCl2·6H2O solution, 0.575 mL 50 mM Tris-HCl buffer (pH = 8.0), 25 µL of 0.28 units/mL AChE/BChE (Sigma Aldrich, Germany), and 0.2 mL of the tested system was measured at a wavelength of 405 nm and at a temperature of 22 °C. The measurement was conducted after 20 min (BChE) or 60 min (AChE) after adding all ingredients into a microplate. The blank sample contained Tris-HCl buffer instead of the tested compounds. All samples were analyzed in six independent replicates. The inhibitory activity of each enzyme was calculated with the use of following equation: Inhibition ability (%)=100−Ap−Abp×100/Ak−Ab where Ak is absorbance of control, Ab is the blank of the control, Ap is the absorbance of the sample, and Abp is the blank of the sample.

[1] = PAMPA BBB permeability assay; format: in vitro ADME; details: for Papp at 4 h: PAMPA
Description: (§2) In vitro gastrointestinal (GIT) and blood–brain barrier (BBB) permeability was studied using the PAMPA (Parallel Artificial Membrane Permeability Assay) model. The sandwich consists of two 96-well microfilter plates. The PAMPA system contains two chambers: the donor at the bottom and the acceptor chamber at the top. The chambers are separated by a 120 μm thick microfilter disc coated with a 20% (w/v) dodecane solution of a lecithin mixture (Pion, Inc.). The analyzed samples were prepared by dissolving an excess amount of pure compound and systems in water. In addition, the pure compound was dissolved in DMSO. The donor solution was adjusted to pH ≈ 6.8 for GIT application and to pH ≈ 7.4 for BBB application using 0.5 M NaOH. The plates were combined and then incubated for 4 h for both models in a humidity-saturated atmosphere with the temperature set at 37 °C. The apparent permeability coefficient (Papp) was calculated according to the following equation: Papp=−ln(1−CA/Cequilibrium)/S×(1/VD+1/VA)×t where VD is donor volume; VA is acceptor volume; Cequilibrium is equilibrium concentration, Cequilibrium=CD×VD+CA×VA/VD+VA; S is membrane area; and t is incubation time (in seconds).

AChE = target: T2, AChE (Homo sapiens, UniProt P22303); experiment: Acetylcholinesterase (AChE) inhibition assay; format: biochemical
T2 construct: purchased Sigma Aldrich, Germany
Description: as §1

[2] = PAMPA GIT permeability assay; format: in vitro ADME
Description: as §2

[3] = parameters: method as in doi:10.1016/j.lwt.2019.03.059; details: cited from earlier work

T1 sequence (P06276 29-602, species assumed): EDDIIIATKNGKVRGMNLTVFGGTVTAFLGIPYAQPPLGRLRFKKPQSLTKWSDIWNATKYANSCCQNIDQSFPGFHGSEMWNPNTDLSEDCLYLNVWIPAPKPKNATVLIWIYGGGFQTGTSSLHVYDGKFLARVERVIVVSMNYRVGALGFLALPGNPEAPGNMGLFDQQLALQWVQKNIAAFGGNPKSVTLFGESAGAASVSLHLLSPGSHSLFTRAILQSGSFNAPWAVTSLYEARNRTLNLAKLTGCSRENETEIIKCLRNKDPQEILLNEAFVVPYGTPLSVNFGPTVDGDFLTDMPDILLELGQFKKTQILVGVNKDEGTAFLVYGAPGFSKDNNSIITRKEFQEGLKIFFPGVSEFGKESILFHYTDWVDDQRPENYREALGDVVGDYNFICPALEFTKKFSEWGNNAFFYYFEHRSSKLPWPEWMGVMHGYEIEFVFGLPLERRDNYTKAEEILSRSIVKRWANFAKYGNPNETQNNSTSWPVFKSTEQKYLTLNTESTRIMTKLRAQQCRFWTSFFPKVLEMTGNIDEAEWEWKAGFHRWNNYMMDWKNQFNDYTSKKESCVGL
T2 sequence (P22303 32-614): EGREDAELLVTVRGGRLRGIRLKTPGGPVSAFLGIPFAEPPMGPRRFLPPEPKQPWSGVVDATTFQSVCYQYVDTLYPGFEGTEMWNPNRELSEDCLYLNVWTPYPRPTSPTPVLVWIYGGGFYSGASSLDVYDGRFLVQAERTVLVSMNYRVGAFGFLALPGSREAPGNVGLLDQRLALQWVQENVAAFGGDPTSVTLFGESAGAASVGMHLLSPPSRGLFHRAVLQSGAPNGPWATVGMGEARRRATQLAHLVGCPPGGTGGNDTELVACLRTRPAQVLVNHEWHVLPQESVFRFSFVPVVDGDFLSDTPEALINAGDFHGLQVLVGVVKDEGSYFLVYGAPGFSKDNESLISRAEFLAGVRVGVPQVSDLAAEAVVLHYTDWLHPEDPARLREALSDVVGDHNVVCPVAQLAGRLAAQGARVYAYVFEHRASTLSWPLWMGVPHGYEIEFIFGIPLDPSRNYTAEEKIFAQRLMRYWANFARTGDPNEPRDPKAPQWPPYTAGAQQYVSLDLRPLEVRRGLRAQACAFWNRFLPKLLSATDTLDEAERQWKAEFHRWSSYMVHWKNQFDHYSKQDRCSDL

COc1ccc([C@@H]2CC(=O)c3c(O)cc(O[C@@H]4O[C@H](CO[C@@H]5O[C@@H](C)[C@H](O)[C@@H](O)[C@H]5O)[C@@H](O)[C@H](O)[C@H]4O)cc3O2)cc1O [Hed, hesperidin]
improvement in solubility (physchem): over 1000 times
solubility at 24 h (physchem; pH 6.8, aqueous buffer): 9 ± 2 µg/mL (≈ 14.7 µM)
solubility at 24 h (physchem; simulated gastric fluid): 8 ± 3 µg/mL (≈ 13.1 µM)
solubility at 24 h (physchem; water): 9 ± 1 µg/mL (≈ 14.7 µM)
BChE inhibition (BChE): 13.86 ± 1.62%
Papp at 4 h ([1]; pH 7.4): 5.58 nm/s
AChE inhibition (AChE): 9.24 ± 0.81%
GIT PAMPA permeability, result in words ([2]; PAMPA): poorly absorbed
Papp at 4 h ([2]; PAMPA, pH 6.8): 0.554 nm/s

COc1ccc([C@@H]2CC(=O)c3c(O)cc(O)cc3O2)cc1O [Het, hesperetin]
improvement in solubility (physchem): > 2000 times
solubility at 24 h (physchem; pH 6.8, aqueous buffer): 15 ± 0.2 µg/mL (≈ 49.6 µM)
solubility at 24 h (physchem; simulated gastric fluid): 6 ± 0.1 µg/mL (≈ 19.8 µM)
solubility at 24 h (physchem; water): 8 ± 0.1 µg/mL (≈ 26.5 µM)
BChE inhibition (BChE): 12.96 ± 3.15%
Papp at 4 h ([1]; compound dissolved in DMSO, donor pH ≈ 7.4, 4 h, 37 °C, read-out: PAMPA BBB Papp): 55.8 nm/s
BBB PAMPA permeability, result in words ([1]; passive diffusion): easily able to pass this biological barrier; also recorded: crosses the blood–brain barrier
Papp at 4 h ([2]; PAMPA, compound dissolved in DMSO, donor pH ≈ 6.8, 4 h, 37 °C, read-out: PAMPA GIT Papp): 96.1 nm/s
GIT PAMPA permeability, result in words ([2]; passive diffusion): readily absorbed; also recorded: well absorbed
improved solubility ([3]; Het complex with HP-β-CD): 467 fold
improved solubility ([3]; Het complex with β-CD): 30 fold

— paper PMC9000012, “Amorphous Inclusion Complexes: Molecular Interactions of Hesperidin and Hesperetin with HP-Β-CD and Their Biological Effects” (International Journal of Molecular Sciences, 2022)
